In US4153710A, “N-(4-[2-(pyrazole-1-carbonamide)-ethyl]-benzenesulphonyl)-urea” (Starogardzkie Zaklady Farmaceutyczne POLFA, priority 1976, dated 1979):

Assays:
[1] = tested on: calcium transmission in mitochondria of a rat's liver; assay: Calcium transmission to rat liver mitochondria; format: biochemical
Description: Sucrose 170mM, KCl 10 mM, MgCl2 […], K2 HPO 5 mM, EGTA 0.01 mM
2-oxoglutaran 2 mM, ADP 1 mM, mitochondria
protein 4 mg/m. Temperature 25° C.
of hydrogen ion consumption. The calcium transmission to mitochondria was
studied with two methods; in a continuous way with a Radiometer calcium
electrode type F2112 or with an isotopic method.
*The medium contained Ca Cl 300 nmoles/ml.

[2] = tested on: oxidizing phosphorylation in mitochondria of a rat's liver; assay: Oxidizing phosphorylation of rat liver mitochondria; format: biochemical; conditions: concentration 1.0 n M
Description: 2-oxoglutaran 2 mM, ADP 1 mM, mitochondria | protein 4 mg/m. […] The | oxidizing phosphorylation speed was determined by means of the measuremen | of hydrogen ion consumption. The calcium transmission to mitochondria was […]

[3] = tested on: oxygen consumption in mitochondria of a rat's liver; assay: Oxygen consumption of rat liver mitochondria; format: biochemical; conditions: concentration 1.0 n M
Description: 2-oxoglutaran 2 mM, ADP 1 mM, mitochondria | protein 4 mg/m. […] The

[4] = tested on: blood-glucose concentration; assay: Decrease in blood-glucose concentration in rats after oral dose (Table 1; ED30 rats Table 2); format: in vivo; conditions: Rattus norvegicus, po; for inhibition in vivo at 0.5 mg/kg: p.os. 0.5 mg/kg; for inhibition in vivo at 1 mg/kg: p.os. 1 mg/kg; for inhibition in vivo at 5 mg/kg: p.os. 5 mg/kg; for inhibition in vivo at 10 mg/kg: p.os. 10 mg/kg; for inhibition in vivo at 20 mg/kg: p.os. 20 mg/kg; for inhibition in vivo at 2 mg/kg: p.os. 2 mg/kg; for inhibition in vivo at 50 mg/kg: p.os. 50 mg/kg
Text: The hypoglycemic activity of N-{4-[2-(pyrazole-1-carbonamide)-ethyl]-benzenesulphonyl}-ureas prepared according to the present invention can be noticed after their oral administration to mice, rats, rabbits and people and when determining the glucose concentration in blood with a known enzymatic method using glucose oxidase.
The exemplary comparison of effective doses (ED30) and the effect of oral dose size of the compounds prepared according to the present invention with Glibornuride, which is distinguished by its high effectiveness and good tolerance when administered to people, on the glucose concentration in the blood of rats, is given in Table 1.

| SMILES | inhibition in vivo at 5 mg/kg ([4]; 1 h) | inhibition in vivo at 5 mg/kg ([4]; 3 h) | inhibition in vivo at 5 mg/kg ([4]; 6 h) | inhibition in vivo at 10 mg/kg ([4]; 1 h) | inhibition in vivo at 10 mg/kg ([4]; 3 h) | inhibition in vivo at 10 mg/kg ([4]; 6 h) | inhibition in vivo at 20 mg/kg ([4]; 1 h) | inhibition in vivo at 20 mg/kg ([4]; 3 h) | inhibition in vivo at 20 mg/kg ([4]; 6 h) | further results |
| --- | --- | --- | --- | --- | --- | --- | --- | --- | --- | --- |
| CCCCNC(=O)NS(=O)(=O)c1ccc(C)cc1 [Tolbutamide] | – | – | – | – | – | – | – | – | – | Calcium transmission / Oxide consumption (ratio of inhibition) ([1]; concentration 1.0 n M): 1.92; % of inhibition, calcium transmission ([1]; concentration 1.0 n M, medium with CaCl 300 nmoles/ml): 27%; preference of inhibition: calcium transmission versus oxidizing processes ([1]; rat liver mitochondria): preferential inhibiting of calcium transmission; % of inhibition, oxidizing phosphorylation [2]: 7%; % of inhibition, oxygen consumption [3]: 14% |
| CCCCNC(=O)NS(=O)(=O)c1ccc(CCNC(=O)n2ccc(C)n2)cc1 [compound 21] | 22% | 38% | 43% | 55% | 53% | 56% | 50% | 55% | 56% | inhibition in vivo at 0.5 mg/kg ([4]; 1 h): 6%; inhibition in vivo at 0.5 mg/kg ([4]; 3 h): 22%; inhibition in vivo at 0.5 mg/kg ([4]; 6 h): 29%; inhibition in vivo at 1 mg/kg ([4]; 1 h): 23%; inhibition in vivo at 1 mg/kg ([4]; 3 h): 23%; inhibition in vivo at 1 mg/kg ([4]; 6 h): 22% |
| CCCNC(=O)NS(=O)(=O)c1ccc(CCNC(=O)n2ccc(C)n2)cc1 [compound 22] | 15% | 24% | 26% | 25% | 29% | 35% | 45% | 56% | 56% | inhibition in vivo at 2 mg/kg ([4]; 1 h): 4%; inhibition in vivo at 2 mg/kg ([4]; 3 h): 26%; inhibition in vivo at 2 mg/kg ([4]; 6 h): 23%; inhibition in vivo at 50 mg/kg ([4]; 1 h): 54%; inhibition in vivo at 50 mg/kg ([4]; 3 h): 55%; inhibition in vivo at 50 mg/kg ([4]; 6 h): 48% |
